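Compound exposure: 48 hours, 5 concentrations, 96-well plates. TGI denotes the concentration required for complete inhibition of growth.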
How the values were obtained:
Assay in all cases: inhibition of tumour cell growth, NCI panel, 48 h
SF-539 CNS = test system: SF-539 CNS
NCI-H226 lung = test system: NCI-H226 lung
UACC-62 melanoma = test system: UACC-62 melanoma
ACHN renal = test system: ACHN renal
SK-MEL-28 melanoma = test system: SK-MEL-28 melanoma
K-562 leukemia = test system: K-562 leukemia
IGROV1 ovarian = test system: IGROV1 ovarian
UACC-257 melanoma = test system: UACC-257 melanoma
NCI-H522 lung = test system: NCI-H522 lung
SF-268 CNS = test system: SF-268 CNS
SR leukemia = test system: SR leukemia
HCT-15 colon = test system: HCT-15 colon
COLO 205 colon = test system: COLO 205 colon
U251 CNS = test system: U251 CNS
EKVX NSCLC = test system: EKVX NSCLC
SN12C renal = test system: SN12C renal
XF 498 CNS = test system: XF 498 CNS
HCC-2998 colon = test system: HCC-2998 colon
SW-620 colon = test system: SW-620 colon
OVCAR-8 ovarian = test system: OVCAR-8 ovarian
DMS 114 small cell lung = test system: DMS 114 small cell lung
HOP-92 NSCLC = test system: HOP-92 NSCLC
KM20L2 colon = test system: KM20L2 colon
DMS 273 small cell lung = test system: DMS 273 small cell lung
HL-60(TB) leukemia = test system: HL-60(TB) leukemia
OVCAR-3 ovarian = test system: OVCAR-3 ovarian
NCI-H23 lung = test system: NCI-H23 lung
KM12 colon = test system: KM12 colon
CCRF-CEM leukemia = test system: CCRF-CEM leukemia
SK-MEL-5 melanoma = test system: SK-MEL-5 melanoma
UO-31 renal = test system: UO-31 renal
NCI-H460 lung = test system: NCI-H460 lung
CAKI-1 renal = test system: CAKI-1 renal
HCT-116 colon = test system: HCT-116 colon
SNB-19 CNS = test system: SNB-19 CNS
OVCAR-4 ovarian = test system: OVCAR-4 ovarian
LOX IMVI melanoma = test system: LOX IMVI melanoma
HOP-18 NSCLC = test system: HOP-18 NSCLC
OVCAR-5 ovarian = test system: OVCAR-5 ovarian
DLD-1 colon = test system: DLD-1 colon
MOLT-4 leukemia = test system: MOLT-4 leukemia
786-0 renal = test system: 786-0 renal
M14 melanoma = test system: M14 melanoma
HT29 colon = test system: HT29 colon
SK-OV-3 ovarian = test system: SK-OV-3 ovarian
SNB-78 CNS = test system: SNB-78 CNS
LXFL 529 NSCLC = test system: LXFL 529 NSCLC
A549 NSCLC = test system: A549 NSCLC
RXF-631 renal = test system: RXF-631 renal
MALME-3M melanoma = test system: MALME-3M melanoma
SF-295 CNS = test system: SF-295 CNS
RPMI-8226 leukemia = test system: RPMI-8226 leukemia
A498 renal = test system: A498 renal
TK-10 renal = test system: TK-10 renal
SNB-75 CNS = test system: SNB-75 CNS
RXF 393 renal = test system: RXF 393 renal
HOP-62 NSCLC = test system: HOP-62 NSCLC

With `Cc1ccc(C(=O)O)cc1NC(=O)c1cc(/C=C/c2ccccc2)[nH]c(=S)n1` the TGI (SF-539 CNS) was > 100 µM, the TGI (NCI-H226 lung) was > 100 µM and the TGI (UACC-62 melanoma) was > 100 µM. The TGI (ACHN renal) was > 100 µM, the TGI (SK-MEL-28 melanoma) was > 100 µM and the TGI (K-562 leukemia) was > 100 µM. For the same compound, the TGI (IGROV1 ovarian) was > 100 µM, the TGI (UACC-257 melanoma) was > 100 µM and the TGI (NCI-H522 lung) was > 100 µM. For the same compound, the TGI (SF-268 CNS) was > 100 µM, the TGI (SR leukemia) was > 100 µM and the TGI (HCT-15 colon) was > 60.7 µM. The TGI (COLO 205 colon) was > 100 µM, the TGI (U251 CNS) was > 100 µM and the TGI (EKVX NSCLC) was > 100 µM. The TGI (SN12C renal) was > 100 µM, the TGI (XF 498 CNS) was > 100 µM and the TGI (HCC-2998 colon) was > 100 µM. The TGI (SW-620 colon) was > 48.8 µM, the TGI (OVCAR-8 ovarian) was > 100 µM and the TGI (DMS 114 small cell lung) was > 100 µM. For the same compound, the TGI (HOP-92 NSCLC) was > 100 µM, the TGI (KM20L2 colon) was > 100 µM and the TGI (DMS 273 small cell lung) was > 100 µM. For the same compound, the TGI (HL-60(TB) leukemia) was > 100 µM, the TGI (OVCAR-3 ovarian) was > 100 µM and the TGI (NCI-H23 lung) was > 100 µM. For the same compound, the TGI (KM12 colon) was > 100 µM, the TGI (CCRF-CEM leukemia) was > 100 µM and the TGI (SK-MEL-5 melanoma) was > 100 µM. The TGI (UO-31 renal) was > 100 µM, the TGI (NCI-H460 lung) was > 100 µM and the TGI (CAKI-1 renal) was > 100 µM. For the same compound, the TGI (HCT-116 colon) was > 53 µM, the TGI (SNB-19 CNS) was > 100 µM and the TGI (OVCAR-4 ovarian) was > 100 µM. The TGI (LOX IMVI melanoma) was > 100 µM, the TGI (HOP-18 NSCLC) was > 100 µM and the TGI (OVCAR-5 ovarian) was > 100 µM. The TGI (DLD-1 colon) was > 77.1 µM, the TGI (MOLT-4 leukemia) was > 100 µM and the TGI (786-0 renal) was > 100 µM. For the same compound, the TGI (M14 melanoma) was > 100 µM, the TGI (HT29 colon) was > 100 µM and the TGI (SK-OV-3 ovarian) was > 100 µM. The TGI (SNB-78 CNS) was > 100 µM, the TGI (LXFL 529 NSCLC) was > 100 µM and the TGI (A549 NSCLC) was > 100 µM. For the same compound, the TGI (RXF-631 renal) was > 100 µM, the TGI (MALME-3M melanoma) was > 100 µM and the TGI (SF-295 CNS) was > 100 µM. The TGI (RPMI-8226 leukemia) was > 69.7 µM, the TGI (A498 renal) was > 100 µM and the TGI (TK-10 renal) was > 100 µM. For the same compound, the TGI (SNB-75 CNS) was > 100 µM, the TGI (RXF 393 renal) was > 100 µM and the TGI (HOP-62 NSCLC) was > 100 µM.

Source: PubChem BioAssay (NCI)
